# According to patent US20260285809A1, “CRYSTAL OF N-(BENZOYL)-PHENYLALANINE COMPOUND, AND PHARMACEUTICAL COMPOSITION THEREOF, AND PREPARATION METHOD THEREFOR AND USE THEREOF” (Hangzhou Apeloa Medicine Research Institute Co., Ltd., priority 2022, published 2026):
# Tests used:
# Assay type in all cases: physicochemical
# [1] = Solubility in biological media (FaSSIF, FeSSIF), HPLC detection; conditions: for solubility at 0.5 h / solubility at 2 h / solubility at 24 h / Solubility: 37° C.
# Experimental: (§1) Add 20 mg of the sample (the compound shown by Formula (I) in the form of Crystal Form A) into a 10 ml conical tube, and then add 4 ml of water or biological medium (FeSSIF (pH 5.0) or FaSSIF (pH 6.5)), respectively. Shake the solution at 37° C. for 24 h in a constant temperature bath at 1000 rpm, and take samples at 0.5 h, 2 h and 24 h, respectively. Filter the samples through an aquo-system microporous filter membrane and discard the initial filtrate to obtain the test solution.
# Perform an HPLC detection for the test solution ([…]), and calculate the sample concentration according to the standard curve method.
# as §1, with “(II)” for “(I)”, “B)” for “A)”
# [2] = Hygroscopicity by dynamic moisture absorber (DVS); conditions: for Weight gain at 80% RH: DVS, 25° C.; for Hygroscopicity (definition criteria for hygroscopic weight gain): from weight gain at 80% RH
# Experimental: The humidity change for each gradient within 0%~90% is 10%. Airflow: 200 ml/min; temperature: 25° C.; testing point: one testing point taken every 10% increase in humidity.
# Take an appropriate amount of the test sample (the compound shown by Formula (I) in the form of Crystal Form A) to test its hygroscopicity with a dynamic moisture absorber.
# Take an appropriate amount of the test sample (the compound shown by Formula (II) in the form of Crystal Form B) to test its hygroscopicity with a dynamic moisture absorber.
# [3] = Solid-state stability under high temperature, high humidity, light exposure and acceleration conditions (HPLC purity, XRPD form); conditions: for remaining at 168 h / remaining at 360 h: solid state
# Text: Sample on the 7th and 15th day to observe the color change of the samples. Analyze the sample purity and crystal form through HPLC and XPRD detection, respectively.
# Sample on the 15th day to observe the color change of the sample. Analyze the sample purity and crystal form through HPLC and XPRD detection, respectively.
# [4] = Acceleration 40° C./75% RH, 15d
compound,measurement,setting,value
"O=C(N[C@@H](Cc1ccc(N2C(=O)C3(CC3)c3ccc(F)c(F)c32)cc1)C(=O)O)c1c(F)cccc1Cl [Crystal Form A, (S)-2-(2-chloro-6-fluorobenzoyl amido)-3-(4-(6′,7′-difluoro-2′-oxospiro [cyclopropane-1,3′-indoline]-1′-yl)phenyl) propionic acid]",solubility at 0.5 h,"[1]; FaSSIF (pH 6.5), 0.5 h",2130 µg/mL
same,solubility at 2 h,"[1]; FaSSIF (pH 6.5), 2 h",2230 µg/mL
same,solubility at 24 h,"[1]; FaSSIF (pH 6.5), 24 h",2220 µg/mL
same,solubility at 0.5 h,"[1]; FeSSIF (pH 5.0), 0.5 h",460 µg/mL
same,solubility at 2 h,"[1]; FeSSIF (pH 5.0), 2 h",480 µg/mL
same,solubility at 24 h,"[1]; FeSSIF (pH 5.0), 24 h",490 µg/mL
same,Solubility in FeSSIF and FaSSIF (in words),[1],good solubility
same,Solubility in FeSSIF and FaSSIF (in words),[1]; listed as Crystal form A,relatively good
same,Weight gain at 80% RH,[2],0.09%
same,Hygroscopicity (definition criteria for hygroscopic weight gain),[2],no or almost no hygroscopicity
same,Change in purity and crystal form (in words),"[3]; 15 days at 60° C., 92.5% RH, 4500 lux and 40° C./75% RH",no significant changes
same,Crystal form (XRPD),"[3]; Acceleration 40° C./75% RH, 7d",Unchanged
same,Crystal form (XRPD),[3]; [4],Unchanged
same,Crystal form (XRPD),"[3]; High humidity 92.5% RH, 7d",Unchanged
same,Crystal form (XRPD),"[3]; High humidity 92.5% RH, 15d",Unchanged
same,Crystal form (XRPD),"[3]; High temperature 60° C., 7d",Unchanged
same,Crystal form (XRPD),"[3]; High temperature 60° C., 15d",Unchanged
same,Crystal form (XRPD),"[3]; Light exposure 4500 lux, 7d",Unchanged
same,Crystal form (XRPD),"[3]; Light exposure 4500 lux, 15d",Unchanged
same,remaining at 168 h,"[3]; Acceleration 40° C./75% RH, 7d",99.4%
same,remaining at 360 h,[3]; [4],99.4%
same,remaining at 168 h,"[3]; High humidity 92.5% RH, 7d",99.3%
same,remaining at 360 h,"[3]; High humidity 92.5% RH, 15d",99.3%
same,remaining at 168 h,"[3]; High temperature 60° C., 7d",99.4%
same,remaining at 360 h,"[3]; High temperature 60° C., 15d",99.4%
same,remaining at 168 h,"[3]; Light exposure 4500 lux, 7d",99.2%
same,remaining at 360 h,"[3]; Light exposure 4500 lux, 15d",99.2%
"O=C(N[C@@H](Cc1ccc(N2C(=O)C3(CC3)c3ccc(F)c(F)c32)cc1)C(=O)O)c1c(F)cccc1Cl [Crystal Form B, (S)-2-(2-chloro-6-fluorobenzoyl amido)-3-(4-(6′,7′-difluoro-2′-oxospiro [cyclopropane-1,3′-indoline]-1′-yl)phenyl) propionic acid]",Solubility,"[1]; FaSSIF (pH 6.5), 0.5 h",3187 µg/mL
same,Solubility,"[1]; FaSSIF (pH 6.5), 2 h",2961 µg/mL
same,Solubility,"[1]; FaSSIF (pH 6.5), 24 h",2791 µg/mL
same,Solubility,"[1]; FeSSIF (pH 5.0), 0.5 h",869 µg/mL
same,Solubility,"[1]; FeSSIF (pH 5.0), 2 h",815 µg/mL
same,Solubility,"[1]; FeSSIF (pH 5.0), 24 h",734 µg/mL
same,Solubility in FeSSIF and FaSSIF (in words),[1],relatively good
same,Weight gain at 80% RH,[2],0.71%
same,Hygroscopicity (definition criteria for hygroscopic weight gain),[2],slight hygroscopicity
